Legend:
[1] = test system: NAD+; experiment: Increasing the level of NAD+ by controlled-release NR microsphere 4, blood NAD+ by HPLC (Example 6); format: in vivo; conditions: SD rats, intragastric; for NAD+ level in blood: 100 mg/kg NR and/or 10 mg/kg apigenin
Method: (§1) 20 SD rats weighing about 200 g were purchased, and an experiment was carried out after one week of adaptive feeding. The 20 rats were divided into 5 groups, 4 rats per group (half male and half female). The rats in group 1 were not treated, the rats in group 2 were administered intragastrically with 100 mg/kg of NR, the rats in group 3 were administered intragastrically with 10 mg/kg of apigenin, the rats in group 4 were administered intragastrically with 100 mg/kg of NR and 10 mg/kg of apigenin at the same time, and the rats in group 5 were administered intragastrically with the controlled-release NR microspheres 4 containing 100 mg/kg of NR and 10 mg/kg of apigenin.
Blood was collected from the rat in each groups via the tail vein at time points of 2 h, 2.5 h, 3 h, 3.5 h, 4 h, 4.5 h, 5 h, 5.5 h, and 6 h, respectively, after intragastric administration of corresponding microspheres, and 0.1 mL of blood was collected each time by each rat. After the vein blood collected from each rat at each time point was treated, the NAD+ level in the blood sample was tested by high performance liquid chromatography (HPLC). The test results of 4 rats in each group were averaged.

[2] = test system: NAD+; experiment: Increasing the level of NAD+ by controlled-release NR microspheres 4, 11, 12, blood NAD+ by HPLC (Example 18); format: in vivo; conditions: SD rats, intragastric; for NAD+ level in blood: 100 mg/kg NR and/or 10 mg/kg apigenin
Method: as §1, with “28 SD” for “20 SD”, “The 28” for “The 20”, “into 7” for “into 5”, “of apigenin,” for “of apigenin at the same time, and”, “microspheres 2 containing 100 mg/kg of NR and 10 mg/kg of apigenin, the rats in group 6 were administered intragastrically with the controlled-release NR microspheres 11 containing 100 mg/kg of NR and 10 mg/kg of apigenin, and the rats in group 7 were administered intragastrically with the controlled-release NR microspheres 12” for “microspheres 4”
Blood was collected from rat the in each groups via the tail vein at time points of 2 h, 2.5 h, 3 h, 3.5 h, 4 h, 4.5 h, 5 h, 5.5 h, and 6 h, respectively, after intragastric administration of corresponding microspheres, and 0.1 mL of blood was collected each time by each rat. After the vein blood collected from each rat in the groups at each time point was treated, the NAD+ level in the blood sample was tested by high performance liquid chromatography (HPLC). The test results of 4 rats in each group were averaged. […] There are time differences between a peak of the releasing of apigenin and a peak of the releasing NR in the controlled-release NR microsphere 4, the controlled-release NR microsphere 11, and the controlled-release NR microsphere 12 that are prepared based on different mass ratios of apigenin (the CD38 inhibitor) to the excipient and different mass ratios of NR to the excipient, and the time differences between a peak of the releasing of apigenin and a peak of the releasing NR in the three microspheres are consistent and are all about 0.5 h to 1.5 h.

[3] = test system: NAD+; experiment: Increasing the level of NAD+ by controlled-release NR microspheres 4, 7, 8, blood NAD+ by HPLC (Example 12); format: in vivo; conditions: SD rats, intragastric; for Content of NAD+ in blood: 100 mg/kg NR and/or 10 mg/kg apigenin
Method: as §1, with “28 SD rats” for “20 SD rats”, “feeding. The 28 rats were” for “feeding. The 20 rats were”, “divided into 7 groups, 4” for “divided into 5 groups, 4”, “same time, the rats” for “same time, and the rats”, “mg/kg of apigenin, the rats in group 6 were administered intragastrically with the controlled-release NR microspheres 7 containing 100 mg/kg of NR and 10 mg/kg of apigenin, and the rats in group 7 were administered intragastrically with the controlled-release NR microspheres 8 containing 100 mg/kg of NR and 10 mg/kg of apigenin.” for “mg/kg of apigenin.”
Blood was collected from each rat in the groups via the tail vein at time points of 2 h, 2.5 h, 3 h, 3.5 h, 4 h, 4.5 h, 5 h, 5.5 h, and 6 h, respectively, after intragastric administration of corresponding microspheres, and 0.1 mL of blood was collected each time by each rat. After the vein blood collected from the rat in each groups at each time point was treated, the NAD+ level in the blood sample was tested by high performance liquid chromatography (HPLC). The test results of 4 rats in each group were averaged. […] There are time differences between a peak of the releasing of apigenin and a peak of the releasing of NR in the controlled-release […], the controlled-release NR microsphere 7, and the controlled-release NR microsphere 8 that are prepared based on different ratios of apigenin (the CD38 inhibitor) to NR, and the time differences between a peak of the releasing of apigenin and a peak of the releasing of NR in the three microspheres are consistent and are all 0.5-1.5 h.

[4] = in vivo; cited from earlier work

Row | SMILES | level of NAD+ in the rat compared with the blank group (in words) [1] | NAD+ level in blood ([1]; 2 h) | NAD+ level in blood ([1]; 2.5 h) | NAD+ level in blood ([1]; 3 h) | NAD+ level in blood ([1]; 3.5 h) | NAD+ level in blood ([1]; 4 h) | NAD+ level in blood ([1]; 4.5 h) | NAD+ level in blood ([1]; 5 h) | NAD+ level in blood ([1]; 5.5 h) | NAD+ level in blood ([1]; 6 h) | level of NAD+ in the rat compared with the blank group (in words) [2] | NAD+ level in blood ([2]; 2 h) | NAD+ level in blood ([2]; 2.5 h) | NAD+ level in blood ([2]; 3 h) | NAD+ level in blood ([2]; 3.5 h) | NAD+ level in blood ([2]; 4 h) | NAD+ level in blood ([2]; 4.5 h) | NAD+ level in blood ([2]; 5 h) | NAD+ level in blood ([2]; 5.5 h) | NAD+ level in blood ([2]; 6 h) | further results
1 | NC(=O)c1ccc[n+]([C@@H]2O[C@H](CO)[C@@H](O)[C@H]2O)c1 [NR, nicotinamide riboside] | can increase the level of NAD+ in the rat | 131 µM | 196 µM | 181 µM | 163 µM | 142 µM | 154 µM | 159 µM | 139 µM | 141 µM | can increase the level of NAD+ in the rat | 142 µM | 203 µM | 188 µM | 154 µM | 167 µM | 152 µM | 145 µM | 144 µM | 135 µM | level of NAD+ in the rat compared with the blank group (in words) [3]: can increase the level of NAD+ in the rat; Content of NAD+ in blood ([3]; 2 h): 128 µM; Content of NAD+ in blood ([3]; 2.5 h): 200 µM; Content of NAD+ in blood ([3]; 3 h): 180 µM; Content of NAD+ in blood ([3]; 3.5 h): 159 µM; Content of NAD+ in blood ([3]; 4 h): 162 µM; Content of NAD+ in blood ([3]; 4.5 h): 157 µM; Content of NAD+ in blood ([3]; 5 h): 149 µM; Content of NAD+ in blood ([3]; 5.5 h): 142 µM; Content of NAD+ in blood ([3]; 6 h): 134 µM
2 | O=c1cc(-c2ccc(O)cc2)oc2cc(O)cc(O)c12 [Apigenin, apigenin] | can increase the level of NAD+ in the rat | 141 µM | 148 µM | 176 µM | 171 µM | 160 µM | 156 µM | 143 µM | 144 µM | 138 µM | can increase the level of NAD+ in the rat | 132 µM | 150 µM | 179 µM | 173 µM | 161 µM | 157 µM | 166 µM | 138 µM | 140 µM | Metabolic half-life [4]: 91.8 h; level of NAD+ in the rat compared with the blank group (in words) [3]: can increase the level of NAD+ in the rat; Content of NAD+ in blood ([3]; 2 h): 144 µM; Content of NAD+ in blood ([3]; 2.5 h): 153 µM; Content of NAD+ in blood ([3]; 3 h): 184 µM; Content of NAD+ in blood ([3]; 3.5 h): 175 µM; Content of NAD+ in blood ([3]; 4 h): 163 µM; Content of NAD+ in blood ([3]; 4.5 h): 159 µM; Content of NAD+ in blood ([3]; 5 h): 146 µM; Content of NAD+ in blood ([3]; 5.5 h): 139 µM; Content of NAD+ in blood ([3]; 6 h): 141 µM

— patent publication US20240139147A1, “METHOD FOR IMPROVING BIOAVAILABILITY OF NAD+ DERIVATIVES” (HOBOOMLIFE BIO-TECHNOLOGY (SHENZHEN) CO., LTD., priority 2022, published 2024)
